Reference: the SangsterLogP compilation

SMILES	logP
Cc1cc2n(c1C(=O)c1ccccc1)CCC2C(=O)O (stereo not given)	2.85
COC(=O)NC1=NCC(c2ccc(CO)cc2)N1C (stereo not given)	0.28
CCOC(=O)NC1=NCC(c2cccc(Cl)c2)N1C (stereo not given)	2.45
COC(=O)NC1=NCC(c2ccc(F)cc2)N1 (stereo not given)	1.49
COC(=O)NC1=NCC(c2ccccc2Br)N1 (stereo not given)	1.85
CCOC(=O)NC1=NCC(c2ccc(CO)cc2)N1C (stereo not given)	0.84
COC(=O)NC1=NCC(c2ccccc2F)N1C (stereo not given)	1.53
O=c1c2ncn(COCCO)c2nc2[nH]c(-c3ccc4ccccc4c3)cn12	2.09
COC(=O)NC1=NCC(c2ccccc2)N1 (stereo not given)	1.55
CCc1cc2n(c1C(=O)c1ccccc1)CCC2C(=O)O (stereo not given)	3.31
COC(=O)NC1=NCC(c2ccc(C(C)C)cc2)N1 (stereo not given)	2.6
CN(C)CCCCOc1cccc2ccccc12	2.05
COC(=O)NC1=NCC(c2cccc(OC)c2)N1C (stereo not given)	1.39
COC(=O)NC1=NCC(c2ccc3ccccc3c2)N1 (stereo not given)	2.54
COC(=O)NC1=NCC(c2ccc(C(=O)OC)cc2)N1C (stereo not given)	1.38
Cc1ccc(C(=O)c2c(C)cc3n2CCC3C(=O)O)cc1 (stereo not given)	3.33
NCCCCOc1cccc2ccccc12	1.25
NCCCCCCCCOc1cccc2ccccc12	3.14
COC(=O)NC1=NCC(c2ccc(C=O)cc2)N1C (stereo not given)	0.74
CCOC(=O)NC1=NCC(c2ccccc2)N1C (stereo not given)	1.9
COC(=O)NC1=NCC(c2cc(Br)ccc2Br)N1C (stereo not given)	2.77
CCOC(=O)NC1=NCC(c2cccc(F)c2)N1C (stereo not given)	1.84
NCCCCCCOc1cccc2ccccc12	2.06

SMILES	logP
COC(=O)NC1=NCC(c2cccc(F)c2)N1 (stereo not given)	1.41
CCOC(=O)NC1=NCC(c2ccc(F)cc2)N1C (stereo not given)	1.9
NCCCOc1cccc2ccccc12	1.04
COC(=O)NC1=NCC(c2cccc(Cl)c2)N1 (stereo not given)	1.9
NCCCCCOc1cccc2ccccc12	1.59
CN(C)CCCOc1cccc2ccccc12	1.99
COC(=O)NC1=NCC(c2ccc3c(c2)OCO3)N1 (stereo not given)	1.21
CCOC(=O)NC1=NCC(c2cccc(C)c2C)N1C (stereo not given)	2.57
COC(=O)NC1=NCC(c2ccccc2)N1C (stereo not given)	1.57
CCc1cc2n(c1C(=O)c1ccc(F)cc1)CCC2C(=O)O (stereo not given)	3.63
COC(=O)NC1=NCC(c2ccccc2SC)N1C (stereo not given)	2.08
Cc1cc2n(c1C(=O)c1ccc(Cl)cc1)CCC2C(=O)O (stereo not given)	3.6
COC(=O)NC1=NCC(c2ccc(C(F)(F)F)cc2)N1 (stereo not given)	2.25
COC(=O)NC1=NCC(c2cccc(Cl)c2)N1C (stereo not given)	2.1
COC(=O)NC1=NCC(c2ccccc2Cl)N1C (stereo not given)	2.08
CCOC(=O)NC1=NCC(c2ccccc2Cl)N1C (stereo not given)	2.4
COc1ccc(C(=O)c2c(C)cc3n2CCC3C(=O)O)cc1 (stereo not given)	2.91
COC(=O)NC1=NCC(c2ccccc2C)N1C (stereo not given)	1.85
NCCOc1cccc2ccccc12	1.15
CN(C)CCOc1cccc2ccccc12	2.12
COC(=O)NC1=NCC(c2ccc(Cl)cc2)N1C (stereo not given)	2.17
COC(=O)NC1=NCC(c2cccc(C)c2)N1C (stereo not given)	1.85
